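In this assay, cells in 96-well plates receive the compound at five concentrations for 48 hours. Endpoints are linearly interpolated between the surrounding concentrations. The concentration for 50% growth inhibition is given as GI50. Definition used: TGI = concentration required for complete inhibition of growth.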
Experiments:
Assay in all cases: inhibition of tumour cell growth, NCI panel, 48 h
[1] = system: 786-0 renal
[2] = system: A498 renal
[3] = system: A549 NSCLC
[4] = system: ACHN renal
[5] = system: BT-549 breast
[6] = system: CAKI-1 renal
[7] = system: CCRF-CEM leukemia
[8] = system: COLO 205 colon
[9] = system: DU-145 prostate
[10] = system: EKVX NSCLC
[11] = system: HCC-2998 colon
[12] = system: HCT-116 colon
[13] = system: HCT-15 colon
[14] = system: HL-60(TB) leukemia
[15] = system: HOP-62 NSCLC
[16] = system: HOP-92 NSCLC
[17] = system: HS 578T breast
[18] = system: HT29 colon
[19] = system: IGROV1 ovarian
[20] = system: K-562 leukemia
[21] = system: KM12 colon
[22] = system: LOX IMVI melanoma
[23] = system: M14 melanoma
[24] = system: MALME-3M melanoma
[25] = system: MCF7 breast
[26] = system: MDA-MB-231 breast
[27] = system: MDA-MB-435
[28] = system: MOLT-4 leukemia
[29] = system: NCI-H226 lung
[30] = system: NCI-H23 lung
[31] = system: NCI-H460 lung
[32] = system: NCI-H522 lung
[33] = system: NCI/ADR-RES ovarian
[34] = system: OVCAR-3 ovarian
[35] = system: OVCAR-4 ovarian
[36] = system: OVCAR-5 ovarian
[37] = system: OVCAR-8 ovarian
[38] = system: PC-3 prostate
[39] = system: RPMI-8226 leukemia
[40] = system: RXF 393 renal
[41] = system: SF-268 CNS
[42] = system: SF-295 CNS
[43] = system: SF-539 CNS
[44] = system: SK-MEL-2 melanoma
[45] = system: SK-MEL-28 melanoma
[46] = system: SK-MEL-5 melanoma
[47] = system: SK-OV-3 ovarian
[48] = system: SN12C renal
[49] = system: SNB-19 CNS
[50] = system: SNB-75 CNS
[51] = system: SR leukemia
[52] = system: SW-620 colon
[53] = system: T-47D breast
[54] = system: TK-10 renal
[55] = system: U251 CNS
[56] = system: UACC-257 melanoma
[57] = system: UACC-62 melanoma
[58] = system: UO-31 renal

`COc1ccc2c(c1)C(=O)c1c-2n(CCCNCCO)c(=O)c2ccccc12` showed a GI50 [1] of 0.0678 µM, a TGI [1] of 0.568 µM and a GI50 [2] of 0.0807 µM. It also gave a TGI [2] of 0.52 µM, a GI50 [3] of 0.0626 µM and a TGI [3] of 0.31 µM. For the same molecule, the GI50 [4] was 0.0397 µM, the TGI [4] was 0.24 µM and the GI50 [5] was 0.127 µM. It also gave a TGI [5] of 0.672 µM, a GI50 [6] of 0.107 µM and a TGI [6] of 0.659 µM. The GI50 [7] was 0.0227 µM, the TGI [7] was 1.05 µM and the GI50 [8] was 0.0746 µM. For the same molecule, the TGI [8] was 1.65 µM, the GI50 [9] was 0.0469 µM and the TGI [9] was 0.331 µM. For the same molecule, the GI50 [10] was 0.349 µM, the TGI [10] was 1.5 µM and the GI50 [11] was 0.109 µM. It also gave a TGI [11] of 0.479 µM, a GI50 [12] of 0.0799 µM and a TGI [12] of 0.534 µM. The GI50 [13] was 0.154 µM, the TGI [13] was 1.18 µM and the GI50 [14] was 0.169 µM. The TGI [14] was 1.69 µM, the GI50 [15] was 0.0575 µM and the TGI [15] was 0.462 µM. It also gave a GI50 [16] of 0.087 µM, a TGI [16] of 0.531 µM and a GI50 [17] of 0.262 µM. It also gave a TGI [17] of 2.24 µM, a GI50 [18] of 0.0764 µM and a TGI [18] of 1.76 µM. For the same molecule, the GI50 [19] was 0.15 µM, the TGI [19] was 2.33 µM and the GI50 [20] was 0.121 µM. The GI50 [21] was 0.2 µM, the TGI [21] was 1.24 µM and the GI50 [22] was 0.0473 µM. For the same molecule, the TGI [22] was 0.224 µM, the GI50 [23] was 0.32 µM and the TGI [23] was 1.48 µM. For the same molecule, the GI50 [24] was 0.178 µM, the TGI [24] was 1.24 µM and the GI50 [25] was < 0.0115 µM. The TGI [25] was 0.434 µM, the GI50 [26] was 0.543 µM and the TGI [26] was 2.33 µM. For the same molecule, the GI50 [27] was 0.322 µM, the TGI [27] was 1.62 µM and the GI50 [28] was < 0.0182 µM. The TGI [28] was 5.28 µM, the GI50 [29] was 0.486 µM and the TGI [29] was 2.31 µM. For the same molecule, the GI50 [30] was 0.12 µM, the TGI [30] was 0.563 µM and the TGI [31] was 0.137 µM. The GI50 [32] was 0.0174 µM, the TGI [32] was 0.0955 µM and the GI50 [33] was 0.807 µM. It also gave a TGI [33] of 3.38 µM, a GI50 [34] of 0.331 µM and a TGI [34] of 1.41 µM. It also gave a GI50 [35] of 0.301 µM, a TGI [35] of 2.23 µM and a GI50 [36] of 0.346 µM. The TGI [36] was 1.11 µM, the GI50 [37] was 0.0908 µM and the TGI [37] was 1.9 µM. It also gave a GI50 [38] of 0.272 µM, a TGI [38] of 2.29 µM and a GI50 [39] of 0.0727 µM. The TGI [39] was 0.594 µM, the GI50 [40] was 0.963 µM and the TGI [40] was 3.95 µM. It also gave a GI50 [41] of 0.12 µM, a TGI [41] of 1.43 µM and a GI50 [42] of 0.0617 µM. For the same molecule, the TGI [42] was 0.425 µM, the GI50 [43] was 0.0764 µM and the TGI [43] was 0.408 µM. It also gave a GI50 [44] of 0.734 µM, a TGI [44] of 2.57 µM and a GI50 [45] of 0.897 µM. The TGI [45] was 2.49 µM, the GI50 [46] was 0.0634 µM and the TGI [46] was 0.202 µM. It also gave a GI50 [47] of 0.218 µM, a TGI [47] of 1.42 µM and a GI50 [48] of 0.118 µM. The TGI [48] was 1.42 µM, the GI50 [49] was 0.117 µM and the TGI [49] was 1.06 µM. For the same molecule, the GI50 [50] was 0.261 µM, the TGI [50] was 1.25 µM and the GI50 [51] was < 0.0207 µM. It also gave a TGI [51] of 1.8 µM, a GI50 [52] of 0.053 µM and a TGI [52] of 1.46 µM. For the same molecule, the GI50 [53] was 0.056 µM, the TGI [53] was 1.62 µM and the GI50 [54] was 0.316 µM. The TGI [54] was 3.03 µM, the GI50 [55] was 0.0821 µM and the TGI [55] was 1.17 µM. The GI50 [56] was 0.541 µM, the TGI [56] was 2.13 µM and the GI50 [57] was 0.312 µM. The TGI [57] was 1.85 µM, the GI50 [58] was 0.0904 µM and the TGI [58] was 0.618 µM.
